Source: paper PMC7070733 (Molecules, 2020)
≈ marks a conversion by molar mass, not a printed value. Where “and” joins values, the source holds several entries; their conditions need not be identical. Identical values can stand only once. Entries after “also recorded” stand apart in the source; their conditions may differ.

What was measured:
C. perfringens NA = type: biochemical; conditions: for IC50 NA-C. perfringens / IC50: MUNANA substrate; for IC50 NA-C. perfringens: nd = no detection
H1N1 NA = H1N1 NA (Influenza A virus, UniProt Q9IGQ6); experiment: biochemical; type: biochemical
[1] = system: endonuclease activity of RNA polymerase in influenza A virus; parameters: method as in earlier work; conditions: ref 40 (Kuzuhara et al. 2009); cited from earlier work
[2] = system: influenza virus replication; parameters: method as in PMID 16137775; conditions: in vitro; cited from earlier work

Sequence of H1N1 NA (Q9IGQ6 whole entry, looked up): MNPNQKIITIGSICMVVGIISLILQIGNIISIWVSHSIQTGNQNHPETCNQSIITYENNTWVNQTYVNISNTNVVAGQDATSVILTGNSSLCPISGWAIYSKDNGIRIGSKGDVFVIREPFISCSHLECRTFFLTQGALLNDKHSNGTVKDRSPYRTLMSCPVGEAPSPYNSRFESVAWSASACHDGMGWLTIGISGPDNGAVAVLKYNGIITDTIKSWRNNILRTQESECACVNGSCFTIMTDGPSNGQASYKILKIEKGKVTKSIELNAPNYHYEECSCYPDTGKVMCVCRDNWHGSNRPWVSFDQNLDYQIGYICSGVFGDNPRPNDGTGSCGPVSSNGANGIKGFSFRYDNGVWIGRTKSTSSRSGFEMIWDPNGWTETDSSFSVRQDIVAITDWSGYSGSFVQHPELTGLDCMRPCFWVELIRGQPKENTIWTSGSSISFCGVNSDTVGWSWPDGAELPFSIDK

Row | Structure (SMILES) | IC50 NA-C. perfringens (C. perfringens NA) | activity against H1N1 NA (in words) (H1N1 NA) | activity against C. perfringens NA (in words) (C. perfringens NA) | IC50 (H1N1 NA; IC50 NA-H1N1) | melting point | maximum inhibition against C. perfringens-NA (C. perfringens NA) | IC50 (C. perfringens NA) | IC50 (H1N1 NA; IC50 H1N1 NA) | inhibition of endonuclease activity of RNA polymerase (in words) [1] | inhibition of influenza virus replication (in words) [2]
1 | CC(=O)N[C@H]1[C@H]([C@H](O)[C@H](O)CO)OC(C(=O)O)=C[C@@H]1O [DANA, 2,3-didehydro-2-deoxy-N-acetylneuraminic acid, reference compound] | 28.79 µg/mL (≈ 98.8 µM) | – | – | – | – | – | – | – | – | –
2 | C[C@H]1C(=O)CC[C@@H]2[C@]1(C)CC[C@H]1[C@@]2(C)CC[C@@]2(C)[C@@H]3CC(C)(C)CC[C@]3(C)CC[C@]12C [GC1, Friedeline] | – | inactive | not active | – | – | – | – | – | – | –
3 | COC(=O)/C(C)=C/C(O)CC(C)C1(C)CC=C2C3CCC4C(C)(C)C(O)CCC4(C)C3(O)CCC21C (stereo not drawn) [GC2, Methyl (24E)-3a,9,23-trihydroxy-17,14-friedolanostan-14,24-dien-26-oate] | 81.78 µg/mL and 81.72 µg/mL | did not show any significant activity; also recorded: less active | less active; also recorded: satisfactory inhibition | 1920 µM | 130 to 135 °C | 79% | 123 µM | – | – | –
4 | Oc1cc(O)c2c(c1)OC(c1ccc(O)c(O)c1)C(O)C2 (stereo not drawn) [GC4, catechin] | 17.48 µg/mL (≈ 60.2 µM) | moderately active; also recorded: moderate activity | moderately active; also recorded: moderate activity | 90.6 µM | – | – | 60.3 µM | 91 µM | inhibited | good inhibition
